In patent USRE47689E1, “Compounds for treating spinal muscular atrophy” (PTC Therapeutics, Inc., priority 2011, dated 2019):

What was measured:
[1] = tested on: SMN2 minigene (full length SMN2 minigene mRNA containing SMN2 exon 7); experiment: SMN2 minigene mRNA splicing RT-qPCR assay in cultured cells; format: cell-based, human; details: Homo sapiens, HEK293-H; HEK293H cells stably transfected with SMN2-A minigene; 24 hours; 7-point concentration curve; 1.5-fold relative to vehicle-treated cells; read-out: EC1.5x for production of full length SMN2 mRNA
How it was run: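 Read-out: full-length (exon 7-included) SMN2 minigene mRNA by multiplex RT-qPCR with GAPDH, efficiency-corrected (1+E)^−Ct, GAPDH-normalized and divided by vehicle. Stably transfected HEK293H cells, 24 h compound exposure, duplicates per concentration. Value is EC1.5x, reported as star ranges.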

Smn protein = Smn protein assay in cultured cells (SMN HTRF); format: cell-based, human; details: 48 hours; for EC1.5x (concentration giving 1.5-fold Smn protein increase): SMA Type 1 patient fibroblast cells (GM03813), 7-point concentration curve, SMN HTRF, concentration producing 1.5 times Smn protein vs DMSO vehicle control, read-out: EC1.5x for Smn protein expression; for maximum fold (Fold) increase of Smn protein: SMA patient fibroblast cells, 7-point concentration data, fold increase relative to vehicle control (SMN HTRF)
How it was run: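 Lysates in RIPA with protease inhibitors are incubated overnight at room temperature with HTRF anti-SMN antibodies. EC1.5x is derived from fold increase in ΔF over vehicle.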

Structure (SMILES)	EC (1.5-fold) [1]	EC1.5x (concentration giving 1.5-fold Smn protein increase) (Smn protein)	maximum fold (Fold) increase of Smn protein (Smn protein)	melting point
Cc1cn2cc(-c3cc4ccc(N5CCC(NC(C)C)CC5)cc4oc3=O)nc2c(C)n1 [Compound 923, 3-(6,8-dimethylimidazo[1,2-a]pyrazin-2-yl)-7-[4-(propan-2-ylamino)piperidin-1-yl]-2H-chromen-2-one]	< 0.1 µM	300 to 1000 nM	*** (fold increase between >1.35 and ≤1.5)	216 to 218 °C
Cc1ccc2nc(-c3cc4ccc(N5CCCC(N(C)C)C5)cc4oc3=O)cn2c1 (stereo not drawn) [Compound 200, 7-[3-(dimethylamino)piperidin-1-yl]-3-(6-methylimidazo[1,2-a]pyridin-2-yl)-2H-chromen-2-one]	3 to 30 µM	–	* (maximum fold increase of ≤1.2)	167 to 169 °C
CSc1cccc(-c2cc3ccc(N4CCNCC4)cc3oc2=O)n1 [Cpd 445, 3-[6-(methylsulfanyl)pyridin-2-yl]-7-(piperazin-1-yl)-2H-chromen-2-one]	3 to 30 µM	–	* (maximum fold increase of ≤1.2)	180 to 183 °C
Cc1cn2cc(-c3cc4ccc(N5C[C@H]6CCCN(C)[C@H]6C5)cc4oc3=O)nc2c(C)n1 [Compound 658, 3-(6,8-dimethylimidazo[1,2-a]pyrazin-2-yl)-7-[(4aR,7aR)-1-methyloctahydro-6H-pyrrolo[3,4-b]pyridin-6-yl]-2H-chromen-2-one]	< 0.1 µM	< 300 nM	***** (fold increase >1.65)	232 °C
Cc1ccc2nc(-c3cc4ccc(N5C[C@@H]6C[C@H]5CN6)cc4oc3=O)cn2c1 [Compound 173, 7-[(1S,4S)-2,5-diazabicyclo[2.2.1]hept-2-yl]-3-(6-methylimidazo[1,2-a]pyridin-2-yl)-2H-chromen-2-one]	0.3 to 1 µM	–	** (fold increase between >1.2 and ≤1.35)	212 to 215 °C
C[C@@H]1CN(c2ccc3cc(-c4cn5cc(F)cnc5n4)c(=O)oc3c2)C[C@H](C)N1 [Compound 491, 7-[(3R,5S)-3,5-dimethylpiperazin-1-yl]-3-(6-fluoroimidazo[1,2-a]pyrimidin-2-yl)-2H-chromen-2-one]	1 to 3 µM	–	** (fold increase between >1.2 and ≤1.35)	275 to 281 °C
Cc1ccc(-c2cc3ccc(N4CCN(C)CC4)cc3oc2=O)cn1 [Compound 164, 7-(4-methylpiperazin-1-yl)-3-(6-methylpyridin-3-yl)-2H-chromen-2-one]	1 to 3 µM	–	* (maximum fold increase of ≤1.2)	158 to 160 °C
Cc1cc(F)c2nc(-c3cc4ccc(N5C[C@@H](C)N[C@@H](C)C5)cc4oc3=O)cn2c1 [Compound 354, 7-[(3R,5S)-3,5-dimethylpiperazin-1-yl]-3-(8-fluoro-6-methylimidazo[1,2-a]pyridin-2-yl)-2H-chromen-2-one]	< 0.1 µM	1000 to 3000 nM	*** (fold increase between >1.35 and ≤1.5)	268 to 275 °C
COc1cccn2cc(-c3cc4ccc(N5CCCN(C)CC5)cc4oc3=O)nc12 [Compound 419, 3-(8-methoxyimidazo[1,2-a]pyridin-2-yl)-7-(4-methyl-1,4-diazepan-1-yl)-2H-chromen-2-one]	0.3 to 1 µM	–	** (fold increase between >1.2 and ≤1.35)	212 to 215 °C
COc1cccc(-c2cc3ccc(N4CCCN(C)CC4)cc3oc2=O)n1 [Compound 359, 3-(6-methoxypyridin-2-yl)-7-(4-methyl-1,4-diazepan-1-yl)-2H-chromen-2-one]	3 to 30 µM	–	* (maximum fold increase of ≤1.2)	155 to 158 °C
Cc1cn2cc(-c3cc4ccc(N5CCN(C(C)C)CC5)cc4oc3=O)cc2c(C)n1 [Compound 709, 3-(1,3-dimethylpyrrolo[1,2-a]pyrazin-7-yl)-7-[4-(propan-2-yl)piperazin-1-yl]-2H-chromen-2-one]	< 0.1 µM	300 to 1000 nM	**** (fold increase between >1.5 and ≤1.65)	173 to 176 °C
Cc1cccnc1Nc1cc2ccc(N3CCNCC3)cc2oc1=O [Compound 61, 3-[(3-methylpyridin-2-yl)amino]-7-(piperazin-1-yl)-2H-chromen-2-one]	3 to 30 µM	–	** (fold increase between >1.2 and ≤1.35)	164 to 167 °C
Cc1cnc2nc(-c3cc4ccc(N5CCNCC5)cc4oc3=O)cn2c1 [Cpd 241, 3-(6-methylimidazo[1,2-a]pyrimidin-2-yl)-7-(piperazin-1-yl)-2H-chromen-2-one]	0.3 to 1 µM	–	* (maximum fold increase of ≤1.2)	> 300 °C
Cc1cn2cc(-c3cc4ccc(N5C[C@@H](C)N[C@@H](C)C5)cc4oc3=O)nc2cn1 [Compound 476, 7-[(3R,5S)-3,5-dimethylpiperazin-1-yl]-3-(6-methylimidazo[1,2-a]pyrazin-2-yl)-2H-chromen-2-one]	< 0.1 µM	< 300 nM	***** (fold increase >1.65)	249 to 250 °C
C[C@H]1CN(c2ccc3cc(-c4cc5ccccc5s4)c(=O)oc3c2)CCN1 [Compound 410, 3-(1-benzothiophen-2-yl)-7-[(3S)-3-methylpiperazin-1-yl]-2H-chromen-2-one]	< 0.1 µM	–	* (maximum fold increase of ≤1.2)	260 to 262 °C
O=c1oc2cc(N3CCNCC3)ccc2cc1-c1cn2cccnc2n1 [Cpd 89, 3-(imidazo[1,2-a]pyrimidin-2-yl)-7-(piperazin-1-yl)-2H-chromen-2-one]	0.1 to 0.3 µM	300 to 1000 nM	**** (fold increase between >1.5 and ≤1.65)	286 °C (dec.)
CN1CCN(c2ccc3cc(-c4cn5cccc(Br)c5n4)c(=O)oc3c2)CC1 [Compound 245, 3-(8-bromoimidazo[1,2-a]pyridin-2-yl)-7-(4-methylpiperazin-1-yl)-2H-chromen-2-one]	0.1 to 0.3 µM	–	** (fold increase between >1.2 and ≤1.35)	217 to 220 °C
O=c1oc2cc(CO)cc(F)c2cc1-c1cn2ccsc2n1 [Compound 397, 5-fluoro-7-(hydroxymethyl)-3-(imidazo[2,1-b][1,3]thiazol-6-yl)-2H-chromen-2-one]	3 to 30 µM	–	* (maximum fold increase of ≤1.2)	278 to 282 °C
O=c1oc2cc(N3CCNCC3)cc(F)c2cc1-c1nc2c(C(F)(F)F)cccc2o1 [Compound 254, 5-fluoro-7-(piperazin-1-yl)-3-[4-(trifluoromethyl)-1,3-benzoxazol-2-yl]-2H-chromen-2-one]	0.3 to 1 µM	–	* (maximum fold increase of ≤1.2)	249 to 253 °C
